Test results published in PMC7649969, “Pyrazolyl-pyrimidones inhibit the function of human solute carrier protein SLC11A2 (hDMT1) by metal chelation” (RSC Medicinal Chemistry, 2020).
Entries after “also recorded” stand apart in the source; their conditions may differ. One block for each compound: values may come before it.

Tests used:
hDMT1 = molecular target: T1, hDMT1 (Homo sapiens, UniProt P49281); assay: two-electrode voltage-clamp electrophysiology of Fe2+ evoked currents in hDMT1-injected Xenopus oocytes; assay type: cell-based; settings: Fe2+ 20 μM
T1 sequence (P49281 1-568): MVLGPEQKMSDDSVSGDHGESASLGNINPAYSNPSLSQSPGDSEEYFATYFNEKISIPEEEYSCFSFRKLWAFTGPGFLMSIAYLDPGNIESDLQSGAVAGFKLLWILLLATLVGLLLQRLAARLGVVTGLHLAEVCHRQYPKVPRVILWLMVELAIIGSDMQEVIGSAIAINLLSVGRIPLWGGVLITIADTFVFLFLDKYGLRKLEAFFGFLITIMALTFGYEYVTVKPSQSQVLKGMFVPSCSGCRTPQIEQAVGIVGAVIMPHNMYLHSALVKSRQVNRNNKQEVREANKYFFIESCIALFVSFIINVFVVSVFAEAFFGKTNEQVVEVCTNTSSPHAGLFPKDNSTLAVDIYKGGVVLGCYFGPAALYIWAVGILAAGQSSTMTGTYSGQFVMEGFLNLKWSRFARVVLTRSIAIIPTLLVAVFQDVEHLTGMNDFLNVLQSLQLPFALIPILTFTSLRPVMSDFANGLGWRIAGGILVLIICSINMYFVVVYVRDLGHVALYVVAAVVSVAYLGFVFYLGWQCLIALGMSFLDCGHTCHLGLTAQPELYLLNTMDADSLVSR
Experimental: Fig. 3 Characterization of Fe^2+ transport inhibition by 1 and 13 in X. laevis oocytes (collected from frogs under license number BE60/18 conceded by the Veterinärdienst des Kantons BE, Sekretariat Tierversuche). (a) Upper panel: Average ^55Fe^2+-uptake (20 μM) by hDMT1-expressing and non-injected oocytes in the absence and the presence of the indicated compounds (10 μM). Data was normalized to ^55Fe^2+-uptake (pmol min^–1) in the absence of compounds represented as mean ± SD (16–29 oocytes). Lower panel: Net uptake of ^55Fe^2+ (20 μM) by hDMT1 in the absence and the presence of the indicated compounds (10 μM). For each batch of oocytes, uptake values were corrected for unspecific iron uptake in non-injected oocytes. Data were normalized to the mean iron uptake by hDMT1 WT (pmol min^–1) and represented as mean ± SD (14–34 oocytes). (b and c) Electrophysiology. […] For each trace, recorded currents were corrected for the background currents observed without substrate. (b) Representative traces recorded with hDMT1 injected oocytes (upper panel) and non-injected oocytes (lower panel). […] Statistical differences were assessed using T-test or Mann–Whitney U test (Fe^2+-uptake by hDMT1 WT vs. non-injected oocytes or vs. compound); p > 0.05 = ns; p < 0.001 = ***.
250 µM non-radioactive Fe2+ and 100 µM Ascorbic acid. Next, oocytes were solubilized with SDS 10% and 55Fe2+ content was determined by scintillation counting. To determine the total activity of the hDMT1-expressing oocytes, uptake of 55Fe2+ was determined also in the absence of any compound. […]
Electrophysiology methods. […] Then, the membrane voltage was held at -50 mV (Vh), and the current (nA) required to keep Vh constant was recorded along the experiments. These currents were measured with an OC-725 amplifier (Warner Instruments), low-pass filtered at 500 Hz, digitized at 5 kHz with a Digidata 1440 data acquisition system and captured using pClamp 10 software (Axon Instruments). […]

[1] = solubility noted at HPLC purity determination; assay type: physicochemical
Experimental: Table S3: Purity of the final compounds.
Compound Retention time Purity [%] HPLC
aMethod A: in 2.2 min from 100 % A to 10 0% D, then staying at 100 % D. Method B: in 7.5 min from 10 0% A to 100 % D,

[2] = isothermal titration calorimetry with Cd2+; assay type: binding; settings: pH 7.4, 25 °C, read-out: apparent dissociation constant KD
[3] = calcein quenching (competition) assay to detect Fe2+ chelation; settings: pH 5.5, 2 μM Fe2+, 1 μM calcein

IC50 (hDMT1; currents at -70 mV, dose-response 0.01-10 μM, read-out: IC50 of inhibition of Fe2+ evoked currents): 140 nM
SMILES: N=C(N)SCc1cccc2c1oc1c(CSC(=N)N)cccc12 [Compound 1, reference compound]

solubility in water and acetonitrile [1]: not soluble in water and acetonitrile
SMILES: Cc1nn(-c2ccccn2)c(O)c1C(=O)Nc1cccc(C(F)(F)F)c1 [Compound 3, reference compound]

IC50 of inhibition of Fe2+ evoked currents (hDMT1; currents at -70 mV, dose-response 0.01-10 μM): did not fit to the equation
Kd [2]: 6.4 µM
SMILES: Cc1cc(=O)[nH]c(-n2nc3c(c2C)CCCC3)n1 [Compound 13]
effect on hDMT1-induced currents (hDMT1; compound up to 10 μM): no measurable effect on the recorded currents; also recorded: did not modulate hDMT1-induced currents
iron chelation in calcein competition assay [3]: significant level of iron chelation
